In US7223864B2, “2-hydroxyethidium, methods of preparation and uses thereof” (MCW Research Foundation, Inc., priority 2004, dated 2007):

Assays:
[1] = literature value used in competition analysis; cited from earlier work
[2] = tested on: X/XO-catalyzed oxidation of HE (superoxide); test: Oxidation of HE by xanthine/xanthine oxidase (X/XO), fluorescence; format: biochemical; conditions: for effect on increase in fluorescence due to X/XO-catalyzed oxidation of HE: HE 50 μM, DNA 250 μg mL^−1, SOD 20 μg mL^−1, catalase 1000 U mL^−1
Procedure: (A) Incubation mixtures consisted of HE (50 μM), xanthine (1 mM), DTPA (100 μM), and XO (0.05 U mL^−1) in aerated phosphate buffer (100 mM, pH 7.4). Reaction was initiated by the addition of XO and the fluorescence spectrum recorded after 30 min. Shown for comparison is the spectrum obtained from E^+ (50 μM) obtained under identical experimental conditions. (B) Same as (A) but in the presence of DNA (250 μg mL^−1). (C) Incubations contained HE (50 μM), DTPA (100 μM) and DNA (250 μg mL^−1) and xanthine (1 mM) or XO (0.05 U mL^−1), both in the presence and absence of SOD (20 μg mL^−1). (D) Same as (B) but in the presence of catalase (1000 U mL^−1).
(A) Incubation initially consisted of HE (50 μM), xanthine (1 mM), XO (0.025 U mL^−1) and DTPA (100 μM) in phosphate buffer (100 mM, pH 7.4). A 50 μM of DEA/NO added at the point indicated by downward arrow. After the increase in fluorescence intensity ceased, an additional bolus amount of HE was added. (B) Same as (A) except XO (0.005 U mL^−1) and DEA/NO were added at a much lower concentration (10 μM).
(§1) Fluorescence measurements—The oxidation of HE in a superoxide generating system was performed on a Shimadzu RF-5301 PC spectrofluorometer (Shimadzu Scientific Instruments Inc., Japan). Typically, excitation was at 510 nm with a 3 or 5 nm slit width and the spectra were recorded over a wavelength region of 540–800 nm using a 10 or 20 nm slit width. The fluorescence emission spectra indicate the actual color of the product of superoxide and HE reaction, E^+ and HE.

[3] = Fluorescence measurements (fluorescence spectral characteristics); format: physicochemical; conditions: for Fluorescence color / Emission maximum (nm): /DNA labels = in the presence of DNA; for Extinction coefficient (mM^−1)*: E^+: excitation maximum 518 nm, HE/superoxide product: excitation maximum 480 nm, slit 3 nm, emission slit 20 nm; for Emission maximum (nm): phosphate buffer (100 mM, pH 7.4)
Procedure: as §1
Superoxide generation was measured to be 8 μM/min.

[4] = Competition kinetic analysis of the reaction between HE and superoxide; conditions: tentative, competition with BMPO and Cu, Zn-SOD
Procedure: Kinetic analysis of the reaction between HE and superoxide—The rate constant between HE and superoxide was calculated from competition experiments. At saturating concentrations of HE, superoxide will be consumed as follows:
Dismutation of superoxide was not considered in our analysis, because at saturating concentrations of HE (compared to superoxide flux), this reaction is negligible (Vásquez-Vivar, J. et al. Free Radic. Biol. Med. 31:975–985, 2001). Thus, assuming a steady-state approximation, the rate of superoxide consumption will be equal to new fluorescent product (P) formation, defined by
[formula] where kHE is the apparent rate constant for the reaction of HE with superoxide under the experimental conditions. Therefore, the ratio between V and V0 that corresponds to the rate of new product formation in the presence and absence of scavenger, respectively, is defined by
[formula] The values of V and V0 can be calculated from variations in fluorescence intensity of new product over time. In these experiments, 5-tert-butoxycarbonyl 5-methyl-1-pyrroline N-oxide (BMPO) and bovine Cu, Zn-SOD were used to trap or dismutate superoxide. The rate constant used for the reaction between BMPO and superoxide was 77±5 M^−1 s^−1 (Rosen, G. et al. J. Biol. Chem. 277:40275–40280, 2002) and 3×10^9 M^−1 s^−1 for Cu, Zn-SOD. […]

[5] = tested on: Bovine aortic endothelial cells; test: Intracellular detection of superoxide with HE in menadione-treated cells; format: cell-based; conditions: 25 min menadione exposure, then 10 μM HE for 20 min; versus control cells
Procedure: Bovine aortic endothelial cells were treated with menadione, a redox-cycling quinone known to induce cellular oxidative stress. After 25 min of exposure, cells were washed free of extracellular menadione and treated with 10 μM of HE for 20 min. Cells were washed and fluorescent images obtained in a fluorescence microscope. […] Cells were lysed and products extracted with n-butanol. After centrifugation to separate out the cell debris, the top layer of butanol was dried, dissolved in water, and HPLC/fluorescence chromatogram was obtained (FIG. 12). The intense peak eluting at 29 min corresponds to that of 2-hydroxyethidium (FIG. 12, top trace). For better separation in biological samples, a linear increase in CH3CN concentration from 10% to 70% in 46 min was used instead of a linear increase in CH3CN concentration from 10% to 40% in 30 min. The other HPLC analysis conditions were same as described above.

[6] = tested on: oxidation of HE by potassium superoxide; test: Oxidation of HE by potassium superoxide, fluorescence; format: biochemical; conditions: SOD 20 μg mL^−1, KO2 1.1 mM
Procedure: (A) Incubations consisted of HE (50 μM), DTPA (100 μM), and KO2 in the presence and absence of DNA (250 μg mL^−1) in phosphate buffer (100 mM, pH 7.4). Superoxide solution was prepared by adding 1 mg of KO2 in 1 mL of dry DMSO and vortexed vigorously for 10 min. The reaction was initiated by adding 40 μL of freshly prepared KO2 in DMSO to 0.46 mL of the above buffer (final concentration of KO2 was 1.1 mM). (B) Same as (A) but also containing SOD (20 μg mL^−1). The extent of oxidation of HE under these conditions is much less than that observed in X/XO.
as §1

[7] = molecular target: T1, endothelial nitric oxide synthase (eNOS) (Bos taurus, UniProt P29473); test: Oxidation of HE by endothelial NOS, fluorescence; format: biochemical; conditions: SOD 20 μg mL^−1; BH4 10 μM; Ca^2+/CaM
T1 construct: made in house; host or cells: Escherichia coli
Procedure: (A) Incubations consisted of NADPH (0.1 mM), DTPA (100 μM), HE (50 μM), L-arginine (0.1 mM), purified eNOS (6.25 μg mL^−1), and Ca^2+ (0.2 mM)/CaM (20 μg mL^−1) in a HEPES buffer (50 mM, pH 7.4). Spectra were obtained 30 min after the addition of eNOS to different incubation mixtures. […] (B) Time-dependent changes in fluorescence of the product formed from an incubation mixture containing NADPH (0.1 mM), HE (50 μM), DTPA (100 μM), Ca^2+ (0.2 mM)/CaM (20 μg mL^−1), and purified eNOS (6.25 μg mL^−1) in a HEPES buffer (50 mM, pH 7.4). (C) Same as (B) except in the presence of SOD (20 μg mL^−1).
as §1

For CC(C)(C)OC(=O)C1(C)CCC=[N+]1[O-] (centres unmarked) [BMPO, 5-tert-butoxycarbonyl 5-methyl-1-pyrroline N-oxide], the “rate constant used for the reaction with superoxide” value [1] is given as 77 ± 5 M⁻¹ s⁻¹.

For CCN(CC)[N+]([O-])=NO [DEA/NO, 2-(N,N-diethylamino)-diazenolate-2-oxide], the “effect on increase of fluorescence due to superoxide-dependent oxidation of HE by X/XO” value ([2]; DEA/NO 10 μM, XO 0.005 U mL^−1) was “inhibited”.

In the case of CC[n+]1c(-c2ccccc2)c2cc(N)ccc2c2ccc(N)cc21 [E^+, ethidium], the Fluorescence color [3] is reported as “Red”, the “Extinction coefficient (mM^−1)*” value [3] is reported as 232 mM⁻¹ and the “Emission maximum (nm)” value [3] is reported as 603 nm. The “Emission maximum (nm)” value ([3]; listed as ethidium) was 605 nm.

With CCN1c2cc(N)ccc2-c2ccc(N)cc2C1c1ccccc1 (centres unmarked) [HE, Hydroethidine (dihydroethidium)] the “rate constant between the superoxide anion and HE” value [4] was “approximately 2.6±0.6×10^5 M^−1 s^−1”, the Fluorescence color [3] was “Red” and the “Extinction coefficient (mM^−1)*” value [3] was 48 mM⁻¹. For the same molecule, the “Emission maximum (nm)” value [3] was 595 nm.

With CC[n+]1c(-c2ccccc2)c2cc(N)ccc2c2cc(O)c(N)cc21 [HE/superoxide product, 2-hydroxyethidium] the Fluorescence color [3] was “Orange”, the “Extinction coefficient (mM^−1)*” value [3] was 285 mM⁻¹ and the “Emission maximum (nm)” value [3] was 586 nm. For the same molecule, the emission maximum ([3]; purified product, in the presence of DNA (250 μg mL^−1) in phosphate buffer) was 567 nm.

For CC1=CC(=O)c2ccccc2C1=O [menadione], the “fluorescence of cells after HE (fluorescence microscope)” value [5] was “intense red fluorescence”.

For “Cu, Zn-SOD: Bovine copper, zinc superoxide dismutase”, the “effect on increase in fluorescence due to X/XO-catalyzed oxidation of HE” value [2] was “completely nullified”, the “effect on formation of fluorescent product from HE and potassium superoxide” value [6] was “inhibited the formation of this product” and the “effect on oxidation of HE by eNOS” value [7] was “inhibited the oxidation of HE”. For the same molecule, the “rate constant used for the reaction with superoxide” value [1] was 3e+09 M⁻¹ s⁻¹.

For catalase, the “effect on increase in fluorescence due to X/XO-catalyzed oxidation of HE” value [2] was “increased slightly”.
